Measured values reported in US6506766B1 (Abbott Laboratories, priority 1998, dated 2003).
Like-named read-outs stand apart in the source and are kept apart here.

Tests used:
[1] = target: T1, human glucocorticoid receptor-α [GRX] isoform (Homo sapiens, UniProt P04150); test: Radioligand binding with human glucocorticoid receptor cytosol ([3H]-dexamethasone competition)
T1 construct: host or cells: insect SF21 cells (baculovirus)
T1 sequence (P04150 1-777): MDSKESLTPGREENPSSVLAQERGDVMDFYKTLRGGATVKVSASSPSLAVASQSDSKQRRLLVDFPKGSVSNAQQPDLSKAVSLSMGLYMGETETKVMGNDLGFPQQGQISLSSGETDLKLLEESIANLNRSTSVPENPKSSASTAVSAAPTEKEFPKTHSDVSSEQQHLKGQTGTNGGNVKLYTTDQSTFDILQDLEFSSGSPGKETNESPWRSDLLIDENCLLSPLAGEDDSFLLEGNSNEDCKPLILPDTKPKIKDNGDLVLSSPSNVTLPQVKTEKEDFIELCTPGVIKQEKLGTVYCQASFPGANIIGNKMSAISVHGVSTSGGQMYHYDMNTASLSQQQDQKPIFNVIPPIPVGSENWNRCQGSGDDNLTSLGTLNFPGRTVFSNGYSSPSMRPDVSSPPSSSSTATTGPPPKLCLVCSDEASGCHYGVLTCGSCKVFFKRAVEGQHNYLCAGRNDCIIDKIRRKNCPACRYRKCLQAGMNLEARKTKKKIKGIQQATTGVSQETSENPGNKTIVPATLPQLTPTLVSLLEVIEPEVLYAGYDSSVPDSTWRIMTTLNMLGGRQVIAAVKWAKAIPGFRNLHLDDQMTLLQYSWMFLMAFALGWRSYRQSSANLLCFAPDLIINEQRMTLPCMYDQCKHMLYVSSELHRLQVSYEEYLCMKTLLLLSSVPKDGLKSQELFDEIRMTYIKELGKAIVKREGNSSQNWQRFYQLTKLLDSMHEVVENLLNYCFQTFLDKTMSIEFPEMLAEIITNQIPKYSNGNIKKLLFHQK

[2] = target: T2, human progesterone receptor-A [PRA] isoform (Homo sapiens, UniProt P06401); test: Radioligand binding with human progesterone receptor cytosol ([3H]-progesterone competition)
T2 construct: host or cells: insect SF21 cells (baculovirus)
T2 sequence (P06401 1-769 isoform P06401-2): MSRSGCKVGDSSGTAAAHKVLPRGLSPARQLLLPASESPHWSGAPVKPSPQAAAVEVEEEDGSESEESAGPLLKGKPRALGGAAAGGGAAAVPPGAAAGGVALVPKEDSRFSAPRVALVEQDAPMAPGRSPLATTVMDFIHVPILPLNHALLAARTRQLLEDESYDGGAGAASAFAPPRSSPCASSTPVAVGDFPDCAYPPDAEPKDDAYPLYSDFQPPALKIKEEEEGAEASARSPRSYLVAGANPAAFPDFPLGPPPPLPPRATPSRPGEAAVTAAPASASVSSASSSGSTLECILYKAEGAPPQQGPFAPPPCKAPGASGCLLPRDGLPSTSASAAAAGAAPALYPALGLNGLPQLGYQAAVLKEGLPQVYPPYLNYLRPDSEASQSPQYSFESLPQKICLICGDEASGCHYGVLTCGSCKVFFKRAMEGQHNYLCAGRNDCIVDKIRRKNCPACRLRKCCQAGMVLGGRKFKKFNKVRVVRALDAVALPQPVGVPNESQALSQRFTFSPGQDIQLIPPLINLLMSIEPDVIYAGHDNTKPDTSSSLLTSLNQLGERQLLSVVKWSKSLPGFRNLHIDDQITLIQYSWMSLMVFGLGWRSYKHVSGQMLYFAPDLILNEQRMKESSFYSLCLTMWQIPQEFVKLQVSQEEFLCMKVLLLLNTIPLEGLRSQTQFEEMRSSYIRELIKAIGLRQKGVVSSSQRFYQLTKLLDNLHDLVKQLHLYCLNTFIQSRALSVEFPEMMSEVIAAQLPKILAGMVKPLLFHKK

[3] = GRX cytosol expressed in insect SF21 cells, [3H]-Dex ~0.9 nM, 4° C. overnight, Ki by Cheng-Prusoff, KL ~[…], read-out: Ki (nM) GR
[4] = PRA cytosol expressed in insect SF21 cells, [3H]Prog ~0.8 nM, 4° C. overnight, Ki by Cheng-Prusoff, KL ~4.5 nM, read-out: Ki (nM) PR

| Ki [1, 3] [nM] | Ki [2, 4] [nM] | SMILES | Ki ([1]; Ki (nM) GR) [nM] | Ki ([2]; Ki (nM) PR) [nM] |
| --- | --- | --- | --- | --- |
| 3.5 | ≥ 10000 | COc1cccc(C2Oc3cccc(OC)c3-c3ccc4c(c32)C(C)=CC(C)(C)N4)c1 (stereo not shown) [Example 85, 2,5-Dihydro-10-methoxy-5-(3-methoxyphenyl)-2,2,4-trimethyl-1H-[1]benzopyrano[3,4-f]quinoline] | – | – |
| 2.1 | ≥ 10000 | C=CCOc1cccc(C2Oc3cccc(OC)c3-c3ccc4c(c32)C(C)=CC(C)(C)N4)c1 (stereo not shown) [Example 86, 2,5-Dihydro-10-methoxy-2,2,4-trimethyl-5-[3-(2-propenyloxy)phenyl]-1H-[1]benzopyrano[3,4-f]quionline] | – | – |
| 4.7 | ≥ 10000 | COc1cccc2c1-c1ccc3c(c1C(c1cccc(OCc4ccccc4)c1)O2)C(C)=CC(C)(C)N3 (stereo not shown) [Example 87, 2,5-Dihydro-10-methoxy-2,2,4-trimethyl-5-[3-(phenylmethoxy)phenyl]-1H[1]benzopyrano[3,4-f]quinoline] | – | – |
| 6 | 15300 | COc1cccc2c1-c1ccc3c(c1C(c1cccc(OCC4CC4)c1)O2)C(C)=CC(C)(C)N3 (stereo not shown) [Example 88, 5-[3-(Cyclopropylmethoxy)phenyl]-2,5-dihydro-10-methoxy-2,2,4-trimethyl-1H-[1]benzopyrano[3,4-f]quinoline] | – | – |
| 275 | ≥ 10000 | COc1cccc2c1-c1ccc3c(c1C(c1cccc(OCCN4CCCCC4)c1)O2)C(C)=CC(C)(C)N3 (stereo not shown) [Example 89, 2,5-Dihydro-10-methoxy-2,2,4-trimethyl-5-[3-[2-(1-piperidinyl)ethoxy]pheny]-1H-[1]benzopyrano[3,4-f]quinoline] | – | – |
| 7.6 | ≥ 10000 | CCCCCCOc1cccc(C2Oc3cccc(OC)c3-c3ccc4c(c32)C(C)=CC(C)(C)N4)c1 (stereo not shown) [Example 90, 5-(3-Hexyloxyphenyl)-2,5-dihydro-10-methoxy-2,2,4-trimethyl-1H-[1]benzopyrano[3,4-f]quinoline] | – | – |
| 17 | ≥ 10000 | COc1cccc2c1-c1ccc3c(c1C(c1cccc(Oc4ccc([N+](=O)[O-])cc4[N+](=O)[O-])c1)O2)C(C)=CC(C)(C)N3 (stereo not shown) [Example 91, 5-[3-(2,4-Dinitrophenoxy)phenyl]-2,5-dihydro-10-methoxy-2,2,4-trimethyl-1H-[1]benzopyrano[3,4-f]quinoline] | – | – |
| 148 | ≥ 10000 | COc1cccc2c1-c1ccc3c(c1C(c1cccc(OS(=O)(=O)c4ccc(C)cc4)c1)O2)C(C)=CC(C)(C)N3 (stereo not shown) [Example 93, 3-(2,5-Dihydro-10-methoxy-2,2,4-trimethyl-1H-[1]benzopyrano[3,4-f]quinolin-5-yl)phenol 4-Methylbenzenesulfonate (Ester)] | – | – |
| 43 | ≥ 10000 | COc1cccc2c1-c1ccc3c(c1C(c1ccc(OC(C)=O)cc1)O2)C(C)=CC(C)(C)N3 (stereo not shown) [Example 94, 4-(2,5-Dihydro-10-methoxy-2,2,4-trimethyl-1H-[1]benzopyrano[3,4-f]quinolin5-yl)phenolacetate (Ester)] | – | – |
| 31 | ≥ 10000 | COc1cccc2c1-c1ccc3c(c1C(c1ccc(O)cc1)O2)C(C)=CC(C)(C)N3 (stereo not shown) [Example 95, 4-(2,5-Dihydro-10-methoxy-2,2,4-trimethyl-1H-[1]benzopyrano[3,4-f]quinolin-5-yl)phenol] | – | – |
| 10 | 9160 | COc1cccc2c1-c1ccc3c(c1C(c1ccc(OCSC)cc1)O2)C(C)=CC(C)(C)N3 (stereo not shown) [Example 96, 2,5-Dihydro-10-methoxy-2,2,4-trimethyl-5-[[4-(methylthio)methoxy]phenyl]-1H-[1]benzopyrano[3,4-f]quinoline] | – | – |
| – | – | COc1cccc2c1-c1ccc3c(c1C(c1ccc(OC(=O)N(C)C)cc1)O2)C(C)=CC(C)(C)N3 (stereo not shown) [Example 97, [4-(2,5-Dihydro-10-methoxy-2,2,4-trimethyl-1H-1benzopyrano[3,4-f]quinolin-5-yl)phenyl]dimethylcarbamate] | 320 | ≥ 10000 |
| 9.8 | ≥ 10000 | COc1cccc2c1-c1ccc3c(c1C(c1ccc(OCc4ccccc4)cc1)O2)C(C)=CC(C)(C)N3 (stereo not shown) [Example 98, 2,5-Dihydro-10-methoxy-2,2,4-trimethyl-5-[4-(phenylmethoxy)phenyl]-1H-[1]benzopyranol[3,4-f]quinoline] | – | – |
| 3.6 | ≥ 10000 | COCOc1cccc(C2Oc3cccc(OC)c3-c3ccc4c(c32)C(C)=CC(C)(C)N4)c1 (stereo not shown) [Example 99] | – | – |
| 7.8 | ≥ 10000 | COc1cccc2c1-c1ccc3c(c1C(c1cccc(OC(=O)N4CCOCC4)c1)O2)C(C)=CC(C)(C)N3 (stereo not shown) [Example 100, [(2,5-Dihydro-10-methoxy-2,2,4-trimethyl-1H-[1]benzopyrano[3,4-f]quinolin-5-yl)phenyl]1-morpholinecarboxylate] | – | – |
| 11.4 | ≥ 10000 | COc1cccc2c1-c1ccc3c(c1C(c1cccc(OC[S+](C)[O-])c1)O2)C(C)=CC(C)(C)N3 (stereo not shown) [Example 101, 2,5-Dihydro-10-methoxy-2,2,4-trimethyl-5-[3-[(methylsulfinyl)methoxy]phenyl]-1H-[1]benzopyrano[3,4-f]quionline] | – | – |
| 5.2 | ≥ 10000 | COc1cccc2c1-c1ccc3c(c1C(c1cccc(SC)c1)O2)C(C)=CC(C)(C)N3 (stereo not shown) [Example 103] | – | – |
| 8.9 | ≥ 10000 | COC(=S)Oc1cccc(C2Oc3cccc(OC)c3-c3ccc4c(c32)C(C)=CC(C)(C)N4)c1 (stereo not shown) [Example 104, O-[3-(2,5-Dihydro-10-methoxy-2,2,4-trimethyl-1H-[1]benzopyrano[3,4-f]quinolin-5-yl)phenyl]methylcarbonothioate] | – | – |
| 9 | > 10000 | COc1cccc2c1-c1ccc3c(c1C(c1cccc(OS(=O)(=O)C(F)(F)F)c1)O2)C(C)=CC(C)(C)N3 (stereo not shown) [Example 105] | – | – |
| 62 | > 10000 | COc1cccc2c1-c1ccc3c(c1C(c1cccc(C4=NC(C)(C)CO4)c1)O2)C(C)=CC(C)(C)N3 (stereo not shown) [Example 106] | – | – |
| 215 | > 10000 | CCOC(=O)c1cccc(C2Oc3cccc(OC)c3-c3ccc4c(c32)C(C)=CC(C)(C)N4)c1 (stereo not shown) [Example 107] | – | – |
| 638 | > 10000 | COc1cccc2c1-c1ccc3c(c1C(c1cccc(C(=O)O)c1)O2)C(C)=CC(C)(C)N3 (stereo not shown) [Example 108, 3-(2,5-Dihydro-10-methoxy-2,2,4-trimethyl-1H-[1]benzopyrano[3,4-f]quinolin-5-yl)benzoic Acid] | – | – |
| 6.1 | ≥ 10000 | C=CCc1cc(C)cc(C2Oc3cccc(OC)c3-c3ccc4c(c32)C(C)=CC(C)(C)N4)c1 (stereo not shown) [Example 109, 2,5-Dihydro-10-methoxy-2,2,4-trimethyl-5-[3-methyl-5-(2-propenyl)phenyl]-1H-[1]benzopyrano[3,4-f]quinoline] | – | – |
| 5.6 | ≥ 10000 | COc1cccc2c1-c1ccc3c(c1C(c1cc(C)cc(C(C)=O)c1)O2)C(C)=CC(C)(C)N3 (stereo not shown) [Example 110, 1-[3-(2,5-Dihydro-10-methoxy-2,2,4-trimethyl-1H-[1]benzopyrano[3,4-f]quinolin-5-yl)-5-methylphenyl]ethanone] | – | – |
| 7.2 | ≥ 10000 | COc1cccc2c1-c1ccc3c(c1C(c1cc(C)cc(C(C)(C)O)c1)O2)C(C)=CC(C)(C)N3 (stereo not shown) [Example 111, 3-(2,5-Dihydro-10-methoxy-2,2,4-trimethyl-1H-[1benzopyrano3,4-f]quinolin-5-yl)5-trimethylbenzenemethanol] | – | – |
| 31 | ≥ 10000 | COc1cccc2c1-c1ccc3c(c1C(c1cccc(-c4ccco4)c1)O2)C(C)=CC(C)(C)N3 (stereo not shown) [Example 112, 5-[3-(2-Furanyl)phenyl]-2,5-dihydro-10-methoxy-2,2,4-trimethyl-1H-[1]benzopyrano[3,4-f]quinoline] | – | – |
